Measured values published in publication PMC2630410 (Molecular and biochemical parasitology, 2008).
Read-outs that look alike come from different tables or passages of the source.

Experiments:
TbNT11.1 [1] = target: T1, TbNT11.1 (Trypanosoma brucei brucei, UniProt Q38CR7); format: cell-based; details: for Inhibition of [3H]hypoxanthine uptake by TbNT11.1 (in words): 1 μM [3H]hypoxanthine, graded concentrations of inhibitor; for Inhibition of [3H]hypoxanthine uptake by nucleosides: 1 mM nucleoside, Δlmant3[pTbNT11.1] parasites; for Inhibition of [3H]hypoxanthine uptake by nucleosides / Inhibition of hypoxanthine uptake by pyrimidine nucleobases: data not shown; for Inhibition of hypoxanthine uptake by pyrimidine nucleobases: concentrations up to 1 mM
TbNT11.1 [2] = target: T1, TbNT11.1; assay: [3H]adenosine uptake by Δldnt1/Δldnt2[pTbNT11.1] line; format: cell-based; details: 0.5 μM or 100 μM [3H]adenosine; data not shown
TbNT11.1 [3] = target: T1, TbNT11.1; format: cell-based; details: for TbNT11.1-mediated uptake of radiolabeled substrate: 1 μM [3H]substrate, Δlmant3[pTbNT11] line
TbNT12.1 [4] = target: T2, TbNT12.1 (Trypanosoma brucei brucei, UniProt Q57TQ7); assay: Uptake of adenine and pentamidine by TbNT12.1 expressed in Xenopus oocytes; format: cell-based; details: for Transport by TbNT12.1 (in words): versus water-injected oocytes
T2 sequence (Q57TQ7 1-462): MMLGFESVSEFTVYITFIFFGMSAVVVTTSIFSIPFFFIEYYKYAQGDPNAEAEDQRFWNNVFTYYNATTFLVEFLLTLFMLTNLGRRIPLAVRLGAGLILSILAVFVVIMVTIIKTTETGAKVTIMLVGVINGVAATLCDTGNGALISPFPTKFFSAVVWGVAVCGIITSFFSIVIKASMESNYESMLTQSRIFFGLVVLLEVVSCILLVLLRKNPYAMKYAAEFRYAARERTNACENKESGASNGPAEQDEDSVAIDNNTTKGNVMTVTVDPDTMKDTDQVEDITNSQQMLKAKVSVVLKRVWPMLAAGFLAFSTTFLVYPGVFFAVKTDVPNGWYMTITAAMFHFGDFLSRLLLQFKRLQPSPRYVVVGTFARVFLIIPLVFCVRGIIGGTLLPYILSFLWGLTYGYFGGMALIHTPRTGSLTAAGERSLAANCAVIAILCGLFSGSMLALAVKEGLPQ

TbNT12.2 [5] = assay: Uptake of adenine and pentamidine by TbNT12.2 expressed in Xenopus oocytes; format: cell-based, Trypanosoma brucei; details: for Transport by TbNT12.2 (in words): Xenopus oocytes, versus water-injected oocytes
PPT1 = assay: Inhibition of [14C]pentamidine uptake by PF trypanosomes; format: cell-based, Trypanosoma brucei; details: 1 mM nucleobase, 25 μM [14C]pentamidine; data not shown
TbNT11.1 [6] = target: T1, TbNT11.1; format: cell-based; details: for Inhibition of [14C]pentamidine uptake by unlabeled nucleobase: 1 mM unlabeled substrate, TbNT11-expressing oocytes
TbNT11.1 [7] = target: T1, TbNT11.1; assay: Inhibition of [3H]adenine uptake by TbNT11.1 in Δlmant3[pTbNT11.1] parasites; format: cell-based
TbNT8.1 = TbNT8.1 (Trypanosoma brucei brucei, UniProt Q386F1); format: cell-based; details: 12.5 μM [3H]hypoxanthine
TbNT12.1 [8] = target: T2, TbNT12.1; assay: Adenine uptake by TbNT12.1 expressed in Δlmant3 promastigotes; format: cell-based; details: 50 μM adenine, n=3
TbNT12.2 [9] = assay: Adenine uptake by TbNT12.2 expressed in Δlmant3 promastigotes; format: cell-based, Trypanosoma brucei; details: 50 μM adenine, n=3
Δlmant3 parasites = assay: Background adenine uptake by Δlmant3 parasites; format: cell-based, Leishmania major; details: 50 μM adenine
TbNT11.1 [10] = target: T1, TbNT11.1; format: cell-based; details: oocytes expressing TbNT11.1; data not shown
O=c1[nH]cnc2nc[nH]c12 = assay: cells, lysate or membranes; details: other: substrate saturation, 1 min, Δlmant3[pTbNT11.1], n=3
[11] = substrate: N=C(N)c1ccc(OCCCCCOc2ccc(C(=N)N)cc2)cc1; assay: Uptake of adenine and pentamidine by TbNT12.1 expressed in Xenopus oocytes; format: cell-based, Trypanosoma brucei; details: other: Xenopus oocytes, n=3; 16.0 °C
[12] = transport rates linear from 0–1 mM adenine

In the case of `Nc1ncnc2c1ncn2[C@@H]1O[C@H](CO)[C@@H](O)[C@H]1O` [adenosine], the “Inhibition of [3H]hypoxanthine uptake by TbNT11.1 (in words)” value (TbNT11.1 [1]) is reported as “an inhibitor” and the “Uptake of [3H]adenosine” value (TbNT11.1 [2]) is reported as “did not take up”.

In the case of `Nc1nc2c(ncn2[C@@H]2O[C@H](CO)[C@@H](O)[C@H]2O)c(=O)[nH]1` [guanosine], the “Inhibition of [3H]hypoxanthine uptake by nucleosides” value (“Inhibition … by nucleosides” below) (TbNT11.1 [1]) is reported as “failure”.

`O=c1[nH]cnc2c1ncn2[C@@H]1O[C@H](CO)[C@@H](O)[C@H]1O` [inosine] was tested, and the “Inhibition … by nucleosides” value (TbNT11.1 [1]) was “failure”.

With `Nc1nc2nc[nH]c2c(=O)[nH]1` [guanine] the “TbNT11.1-mediated uptake of radiolabeled substrate” value (“TbNT11.1-mediated uptake” for short) (TbNT11.1 [3]) was “not a substrate”, the “Inhibition of [3H]hypoxanthine uptake by TbNT11.1 (in words)” value (TbNT11.1 [1]) was “an inhibitor” and the “Transport by TbNT12.1 (in words)” value (TbNT12.1 [4]; Xenopus oocytes) was “did not mediate the uptake”. The “Transport by TbNT12.2 (in words)” value (TbNT12.2 [5]) was “did not mediate the uptake” and the “Inhibition of [14C]pentamidine uptake by PFs” value (shortened to “Inhibition … by PFs”) (PPT1) was “did not inhibit”.

In the case of `O=c1[nH]c(=O)c2nc[nH]c2[nH]1` [xanthine], the “TbNT11.1-mediated uptake” value (TbNT11.1 [3]) is reported as “mediated uptake”, the Km (TbNT11.1 [3]; read-out: Km for uptake by TbNT11.1, substrate saturation, 1 min, Δlmant3[pTbNT11.1], n=3) is reported as 7.2 ± 2.3 µM and the “Inhibition of [14C]pentamidine uptake by unlabeled nucleobase” value (shortened to “Inhibition … by unlabeled nucleobase”) (TbNT11.1 [6]; 50 μM [14C]pentamidine) is reported as “partially inhibited”. For the same molecule, the “Transport by TbNT12.1 (in words)” value (TbNT12.1 [4]; Xenopus oocytes) was “did not mediate the uptake” and the “Transport by TbNT12.2 (in words)” value (TbNT12.2 [5]) was “did not mediate the uptake”.

In the case of `O=c1[nH]cnc2nc[nH]c12` [hypoxanthine], the “TbNT11.1-mediated uptake” value (TbNT11.1 [3]) is reported as “mediated uptake”, the “Inhibition … by unlabeled nucleobase” value (TbNT11.1 [6]; 50 μM [14C]pentamidine) is reported as “partially inhibited” and the “Transport by TbNT12.1 (in words)” value (TbNT12.1 [4]; Xenopus oocytes) is reported as “did not mediate the uptake”. For the same molecule, the “Transport by TbNT12.2 (in words)” value (TbNT12.2 [5]) was “did not mediate the uptake” and the “Inhibition … by PFs” value (PPT1) was “did not inhibit”.

For `O=c1cc[nH]c(=O)[nH]1` [uracil], the “Inhibition of hypoxanthine uptake by pyrimidine nucleobases” value (TbNT11.1 [1]) was “did not inhibit”.

In the case of `N=C(N)c1ccc(OCCCCCOc2ccc(C(=N)N)cc2)cc1` [pentamidine], the EC50 (TbNT11.1 [1]) is reported as 4.8 µM, the EC50 (TbNT11.1 [7]) is reported as 9.6 µM and the “Inhibition of hypoxanthine transport by TbNT8.1” value (TbNT8.1) is reported as “did not significantly inhibit”. The “Uptake of [14C]pentamidine by TbNT11.1 cRNA-injected oocytes” value (TbNT11.1 [6]; 50 μM [14C]pentamidine, versus water injected oocytes) was “much more rapidly than control water injected oocytes”, the Km (TbNT11.1 [6]; read-out: Km for pentamidine uptake by TbNT11.1, Xenopus oocytes, 1 h, n=3) was 407 ± 119 µM and the “Vmax for pentamidine uptake by TbNT12.1” value (TbNT12.1 [4]; Xenopus oocytes, n=3) was 21.8 ± 6.5 pmol/h/oocyte. The “Transport by TbNT12.1 (in words)” value (TbNT12.1 [4]; Xenopus oocytes) was “also transport” and the “Transport by TbNT12.2 (in words)” value (TbNT12.2 [5]) was “also transport”.

In the case of `Nc1cc[nH]c(=O)n1` [cytosine], the “Inhibition of hypoxanthine uptake by pyrimidine nucleobases” value (TbNT11.1 [1]) is reported as “did not inhibit”.

`Nc1ncnc2[nH]cnc12` [adenine] was tested, and the “TbNT11.1-mediated uptake” value (TbNT11.1 [3]) was “mediated uptake”, the Ki (TbNT11.1 [1]) was 8 µM and the “Inhibition … by unlabeled nucleobase” value (TbNT11.1 [6]; 50 μM [14C]pentamidine) was “very poor inhibitor”. The “Transport by TbNT12.1 (in words)” value (TbNT12.1 [4]; Xenopus oocytes) was “transport”, the “Affinity of TbNT12.1 for substrate” value (TbNT12.1 [4]; [12]) was “low” and the “Transport by TbNT12.2 (in words)” value (TbNT12.2 [5]) was “transport”. The “Affinity of TbNT12.2 for substrate” value (TbNT12.2 [5]; [12]) was “low”, the “Uptake of adenine, TbNT12.1 in Δlmant3 promastigotes” value (TbNT12.1 [8]) was 103 ± 2 pmol/min/10^7 parasites and the “Uptake of adenine, TbNT12.2 in Δlmant3 promastigotes” value (TbNT12.2 [9]) was 86.5 ± 1.1 pmol/min/10^7 parasites. The “Background uptake of adenine in Δlmant3 parasites” value (Δlmant3 parasites) was 41.8 ± 1.4 pmol/min/10^7 parasites and the “Inhibition … by PFs” value (PPT1) was “did not inhibit”.

`Nc1nc(N)nc(Nc2ccc([As]3SCC(CO)S3)cc2)n1` (centres unmarked) [melarsoprol] was tested, and the EC50 (TbNT11.1 [7]) was 12.9 µM and the “Melarsoprol uptake over background of water injected oocytes” value (TbNT11.1 [10]) was “no uptake”.

In the case of `Oc1ncnc2[nH]ncc12` [allopurinol, 4-hydroxypyrazolo[3,4-d]-pyrimidine-4-one], the “TbNT11.1-mediated uptake” value (TbNT11.1 [3]) is reported as “promoted uptake” and the Ki (TbNT11.1 [1]) is reported as 67 µM.

For “TbNT11.1 (Trypanosoma brucei brucei TREU927)”, the Km (O=c1[nH]cnc2nc[nH]c12) was 141 µM.

For `OC[C@H]1O[C@@H](n2cnc3c(O)nc(O)nc32)[C@H](O)[C@@H]1O` [xanthosine], the “Inhibition … by nucleosides” value (TbNT11.1 [1]) was “failure”.

B1: TbNT12.1 (Trypanosoma brucei brucei TREU927) (protein)
chain: T2 sequence (Q57TQ7 1-462)
With B1 the Km [11] was 161 ± 8 µM.
